Experiments:
[1] = Selectivity index, ratio of IC50 for preferential cytotoxicity against human PANC-1 cells in DMEM to PC50 for preferential cytotoxicity against human PANC-1 cells in nutrient-deprived medium; format: functional
MIA PaCa-2 [2] = assay: Preferential cytotoxicity against human MIA PaCa-2 cells in nutrient-deprived medium measured after 24 hrs by WST-8 cell counting analysis; format: functional
MIA PaCa-2 [3] = assay: Preferential cytotoxicity against human MIA PaCa-2 cells in DMEM measured after 24 hrs by WST-8 cell counting analysis; format: functional, cell-based; conditions: MIA PaCa-2, 24 h
PANC-1 [4] = assay: Preferential cytotoxicity against human PANC-1 cells in nutrient-deprived medium measured after 24 hrs by WST-8 cell counting analysis; format: functional
[5] = Selectivity index, ratio of IC50 for preferential cytotoxicity against human MIA PaCa-2 cells in DMEM to PC50 for preferential cytotoxicity against human MIA PaCa-2 cells in nutrient-deprived medium; format: functional
PANC-1 [6] = assay: Preferential cytotoxicity against human PANC-1 cells in DMEM measured after 24 hrs by WST-8 cell counting analysis; format: functional, cell-based; conditions: PANC-1, 24 h

Compound | Selectivity Index [1] | PC50 (MIA PaCa-2 [2]) [µM] | IC50 (MIA PaCa-2 [3]) [µM] | PC50 (PANC-1 [4]) [µM] | Selectivity Index [5] | IC50 (PANC-1 [6]) [µM]
COc1cc(O)c(C(=O)[C@H]2CC=C(CCC=C(C)C)C[C@@H]2c2cc(F)cc(F)c2)c(O)c1 | 18.6 | 0.79 | 17.9 | 0.73 | 22.6 | 13.5
COc1cc(O)c(C(=O)[C@H]2CC=C(CCC=C(C)C)C[C@@H]2c2ccccc2)c(O)c1 | 46.3 | 2.76 | 61.4 | 0.55 | 22.3 | 25.3
COc1cccc(O)c1C(=O)[C@H]1CC=C(CCC=C(C)C)C[C@@H]1c1ccccc1 | 10.3 | 31.8 | > 100 | 3.3 | – | 33.9
CC(C)=CCCC1=CC[C@H](C(=O)c2c(O)cccc2O)[C@@H](c2cc(F)ccc2F)C1 (relative stereo) | 21.1 | 0.77 | 20.8 | 0.53 | 26.9 | 11.2
CC(C)=CCCC1=CC[C@H](C(=O)c2c(O)cccc2O)[C@@H](c2ccc(F)cc2F)C1 (relative stereo) | 26.1 | 0.34 | 11.1 | 0.27 | 32.6 | 7.18
COc1cc(O)c(C(=O)[C@H]2CC=C(CCC=C(C)C)C[C@@H]2c2cccc(F)c2F)c(O)c1 (relative stereo) | 38 | 1.01 | 33.8 | 0.64 | 33.4 | 24.4
CC(C)=CCCC1=CC[C@H](C(=O)c2c(O)cccc2O)[C@@H](c2ccccc2F)C1 (relative stereo) | 29.5 | 0.84 | 25 | 0.47 | 29.6 | 13.8
COc1cc(O)c(C(=O)[C@H]2CC=C(CCC=C(C)C)C[C@@H]2c2ccc(C)cc2)c(O)c1 (relative stereo) | – | 3.65 | 93.3 | 0.56 | 25.5 | > 100
CC(C)=CCCC1=CC[C@H](C(=O)c2c(O)cccc2O)[C@@H](c2ccc(F)c(F)c2)C1 (relative stereo) | 33.5 | 0.68 | 23.1 | 0.33 | 33.8 | 11
COc1cccc(OC)c1C(=O)[C@H]1CC=C(CCC=C(C)C)C[C@@H]1c1ccccc1 (relative stereo) | 24.1 | 13.6 | > 100 | 1.66 | – | 40
CC(C)=CCCC1=CC[C@H](C(=O)c2c(O)cccc2O)[C@@H](c2cccc(Cl)c2)C1 (relative stereo) | 17.4 | 1.09 | 29.1 | 0.85 | 26.8 | 14.8
CC(C)=CCCC1=CC[C@H](C(=O)c2c(O)cccc2O)[C@@H](c2ccc(Cl)cc2Cl)C1 (relative stereo) | 23.5 | 0.78 | 22.2 | 0.43 | 28.6 | 10
COc1cc(O)c(C(=O)[C@H]2CC=C(CCC=C(C)C)C[C@@H]2c2ccc(F)cc2F)c(O)c1 (relative stereo) | 21.6 | 0.63 | 20.2 | 0.97 | 32 | 21
COc1ccc([C@H]2CC(CCC=C(C)C)=CC[C@@H]2C(=O)c2c(O)cccc2O)cc1 (relative stereo) | 52.8 | 4.73 | > 100 | 1.08 | – | 56.7
COc1cc(O)c(C(=O)[C@H]2CC=C(CCC=C(C)C)C[C@@H]2c2cccc(F)c2)c(O)c1 (relative stereo) | 25.6 | 1.21 | 39.9 | 1.16 | 32.9 | 29.6
CC(C)=CCCC1=CC[C@H](C(=O)c2c(O)cccc2O)[C@@H](c2cc(F)cc(F)c2)C1 (relative stereo) | 31.6 | 0.75 | 19.7 | 0.33 | 26.2 | 10.5
CC(C)=CCCC1=CC[C@H](C(=O)c2c(O)cccc2O)[C@@H](c2ccccc2Cl)C1 (relative stereo) | 22.2 | 1.08 | 29 | 0.69 | 26.7 | 15.4
COc1cc(O)c(C(=O)[C@H]2CC=C(CCC=C(C)C)C[C@@H]2c2ccc(Cl)cc2)c(O)c1 (relative stereo) | 94.5 | 3.02 | 71.9 | 0.41 | 23.8 | 39.1
CC(C)=CCCC1=CC[C@H](C(=O)c2c(O)cccc2O)[C@@H](c2ccc(Cl)cc2)C1 (relative stereo) | 126.8 | 1.3 | 32.6 | 0.68 | 25 | 86
CC(C)=CCCC1=CC[C@H](C(=O)c2c(O)cccc2O)[C@@H](c2cccc(F)c2)C1 (relative stereo) | 11.2 | 1.23 | 30.8 | 1.43 | 25.1 | 16
COc1cc(O)c(C(=O)[C@H]2CC=C(CCC=C(C)C)C[C@@H]2c2ccc(F)cc2)c(O)c1 (relative stereo) | – | 1.01 | > 100 | 0.39 | – | > 100
CC(C)=CCCC1=CC[C@H](C(=O)c2c(O)cccc2O)[C@@H](c2ccc(F)cc2)C1 (relative stereo) | – | 0.89 | 34.4 | 0.37 | 38.6 | > 100
COc1cc(O)c(C(=O)[C@H]2CC=C(CCC=C(C)C)C[C@@H]2c2ccccc2F)c(O)c1 (relative stereo) | 39.3 | 0.85 | 33.7 | 0.72 | 39.6 | 28.5
CC(C)=CCCC1=CC[C@H](C(=O)c2c(O)cccc2O)[C@@H](c2cccc(Cl)c2Cl)C1 (relative stereo) | 23.5 | 0.62 | 20.3 | 0.45 | 32.9 | 10.5
COc1ccc([C@H]2CC(CCC=C(C)C)=CC[C@@H]2C(=O)c2c(O)cc(OC)cc2O)cc1 (relative stereo) | 110 | 1.93 | 102 | 0.45 | 52.9 | 50
CC(C)=CCCC1=CC[C@H](C(=O)c2c(O)cccc2O)[C@@H](c2ccccc2)C1 (relative stereo) | 117 | 1.79 | 58.2 | 0.4 | 32.5 | 47.2
COc1ccc(C(=O)[C@H]2CC=C(CCC=C(C)C)C[C@@H]2c2ccccc2)c(O)c1 (relative stereo) | 3.3 | 59.3 | > 100 | 7.32 | – | 24.2

From ChEMBL document CHEMBL5576134, “Targeting Pancreatic Cancer with Novel Nicolaioidesin C Derivatives: Molecular Mechanism, In Vitro, and In Vivo Evaluations” (J Med Chem, 2024)
